Laboratory results taken from patent US4737510A, “Bioactive metabolites from the caribbean sponge agelas coniferin” (priority 1986, dated 1988).
Where “and” joins values, the source holds several entries; their conditions need not be identical. Identical values can stand only once. Like-named read-outs stand apart in the source and are kept apart here.

What was measured:
[1] = tested on: Balanus amphitrite amphitrite; experiment: Barnacle settlement assay, facilitation; assay type: in vivo, Balanus amphitrite amphitrite (barnacle); conditions: Amphibalanus amphitrite
[2] = tested on: Monkey Kidney Cells (CV-1); experiment: Cytotoxicity to monkey kidney cells (CV-1) determined by Dr. R. G. Hughes, Jr.; conditions: 8 or less essentially indicates noncytotoxicity
[3] = tested on: Herpes Simplex Virus type 1 (HSV-1); experiment: Antiviral activity against HSV-1 determined by Dr. R. G. Hughes, Jr.;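 further: grades: +++ strong ++ moderate + light ± questionable - negative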; assay type: cell-based
Bacillus subtilis = experiment: Disc diffusion antimicrobial assay, Bacillus subtilis; assay type: cell-based; conditions: for zone of inhibition at 10 µg/disc / zone of inhibition at 50 µg/disc / zone of inhibition at 100 µg/disc: Bacillus subtilis, 6.5 mm disc, read-out: diameter of the clear zone of inhibition; for zone of inhibition at 50 µg/disc: 50 μg/disk; for zone of inhibition at 100 µg/disc: 100 μg/disk
Escherichia coli = experiment: Disc diffusion antimicrobial assay, Escherichia coli; assay type: cell-based; conditions: for activity against Escherichia coli / zone of inhibition at 10 µg/disc: 10 μg/disk; for zone of inhibition at 10 µg/disc / zone of inhibition at 50 µg/disc / zone of inhibition at 100 µg/disc: Escherichia coli, 6.5 mm disc, read-out: diameter of the clear zone of inhibition; for zone of inhibition at 50 µg/disc: 50 μg/disk; for zone of inhibition at 100 µg/disc: 100 μg/disk
[4] = tested on: vesicular stomatitis virus (VSV); experiment: microbe, parasite or virus in culture; assay type: cell-based; conditions: Vesicular stomatitis virus, in Primates
[5] = tested on: Herpes simplex virus, type I (HSV-1); experiment: microbe, parasite or virus in culture; assay type: cell-based; conditions: Human alphaherpesvirus 1, in Primates
[6] = tested on: Balanus amphitrite amphitrite; experiment: Barnacle settlement assay, inhibition; assay type: in vivo, Balanus amphitrite amphitrite (barnacle); conditions: Amphibalanus amphitrite
E. coli strain BR339 = assay type: cell-based
[7] = read-out: antiviral activity, VSV, ++ scale
[8] = read-out: antiviral activity, VSV, zone diameter
[9] = read-out: antiviral activity, HSV-1, ++ scale
[10] = read-out: antiviral activity, HSV-1, zone diameter

Structure (SMILES)	cytotoxicity, zone diameter ([2]; 25 μg/disk)	cytotoxicity, zone diameter ([2]; 50 μg/disk)	cytotoxicity, zone diameter ([2]; 100 μg/disk)	HSV-1 activity ([3]; 25 μg/disk)	HSV-1 activity ([3]; 50 μg/disk)	HSV-1 activity ([3]; 100 μg/disk)	zone of inhibition at 10 µg/disc (Bacillus subtilis; 10 μg/disk)	zone of inhibition at 50 µg/disc (Bacillus subtilis)	zone of inhibition at 100 µg/disc (Bacillus subtilis)	activity against Escherichia coli (Escherichia coli)	zone of inhibition at 10 µg/disc (Escherichia coli)	zone of inhibition at 50 µg/disc (Escherichia coli)	zone of inhibition at 100 µg/disc (Escherichia coli)	zone of inhibition at 20 µg/disc [4, 7]	zone of inhibition at 50 µg/disc [4, 7]	zone of inhibition at 100 µg/disc [4, 7]	zone of inhibition at 200 µg/disc [4, 7]	zone of inhibition at 20 µg/disc [4, 8]	zone of inhibition at 50 µg/disc [4, 8]	zone of inhibition at 100 µg/disc [4, 8]	further results
Nc1ncc([C@@H]2[C@@H](CNC(=O)c3cc(Br)c[nH]3)[C@H](CNC(=O)c3cc(Br)c[nH]3)[C@H]2c2cnc(N)[nH]2)[nH]1 (relative stereo) [Compound 2a, Sceptrin Acetate]	5 mm	5 mm	7 mm	-	+++	++	9 mm	16 mm	17 mm	active	7 mm	10 mm	11 mm	7 mm	8 to 10 mm	11 to 15 mm	11 to 15 mm	7 mm	8 mm	11 mm	EC50 [1]: 0.029 µg/mL; growth inhibition of Bacillus subtilis (Bacillus subtilis; 10 μg/disk): most active; zone of inhibition at 200 µg/disc [4, 8]: 13 mm; zone of inhibition at 20 µg/disc [5, 9]: 11 to 15 mm; zone of inhibition at 50 µg/disc [5, 9]: 11 to 15 mm; zone of inhibition at 100 µg/disc [5, 9]: 11 to 15 mm; zone of inhibition at 200 µg/disc [5, 9]: > 16 mm; zone of inhibition at 20 µg/disc [5, 10]: 11 mm; zone of inhibition at 50 µg/disc [5, 10]: 13 mm; zone of inhibition at 100 µg/disc [5, 10]: 13 mm; zone of inhibition at 200 µg/disc [5, 10]: 21 mm; EC50 [6]: 44 µg/mL; BIA activity (E. coli strain BR339): inducers; BIA activity, numerical color intensity scale 0-10 (E. coli strain BR339): 9 and 6
Nc1ncc(C2c3nc(N)[nH]c3CC(CNC(=O)c3cc(Br)c[nH]3)C2CNC(=O)c2cc(Br)c[nH]2)[nH]1 (stereo not shown) [Compound 4a, Ageliferin Acetate]	5 mm	5 mm	8 mm	-	+	++	10 mm	15 mm	16 mm	active	7 mm	9 mm	9 mm	< 7 mm	8 to 10 mm	8 to 10 mm	11 to 15 mm	0 mm	8 mm	10 mm	zone of inhibition at 200 µg/disc [4, 8]: 12 mm; zone of inhibition at 20 µg/disc [5, 9]: 8 to 10 mm; zone of inhibition at 50 µg/disc [5, 9]: 11 to 15 mm; zone of inhibition at 100 µg/disc [5, 9]: 11 to 15 mm; zone of inhibition at 200 µg/disc [5, 9]: > 16 mm; zone of inhibition at 20 µg/disc [5, 10]: 10 mm; zone of inhibition at 50 µg/disc [5, 10]: 13 mm; zone of inhibition at 100 µg/disc [5, 10]: 14 mm; zone of inhibition at 200 µg/disc [5, 10]: 17 mm; EC50 [6]: 21 µg/mL
